The target of one assay is D(3) dopamine receptor (Homo sapiens, UniProt P35462).
Assay [1] concerns the target T1, Muscarinic acetylcholine receptor M2 (Homo sapiens, UniProt P08172).
T1 sequence (P08172 whole entry): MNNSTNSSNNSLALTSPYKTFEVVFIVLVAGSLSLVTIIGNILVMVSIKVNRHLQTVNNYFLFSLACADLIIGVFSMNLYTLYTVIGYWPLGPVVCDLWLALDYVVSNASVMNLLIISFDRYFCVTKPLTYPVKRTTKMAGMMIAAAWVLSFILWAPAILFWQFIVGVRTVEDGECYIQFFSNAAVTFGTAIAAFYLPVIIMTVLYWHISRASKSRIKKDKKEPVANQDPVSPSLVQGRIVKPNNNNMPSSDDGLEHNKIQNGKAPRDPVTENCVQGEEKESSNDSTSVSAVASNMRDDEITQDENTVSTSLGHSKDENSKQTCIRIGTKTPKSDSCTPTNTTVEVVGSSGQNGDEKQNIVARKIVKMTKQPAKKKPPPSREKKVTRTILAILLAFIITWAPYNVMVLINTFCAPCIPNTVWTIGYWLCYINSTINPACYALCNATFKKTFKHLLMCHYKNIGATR
The assay is classed as functional, cell-based.

Assay [2] concerns the target T2, Equilibrative nucleoside transporter 1 (Homo sapiens, UniProt Q99808).
T2 sequence (Q99808 whole entry): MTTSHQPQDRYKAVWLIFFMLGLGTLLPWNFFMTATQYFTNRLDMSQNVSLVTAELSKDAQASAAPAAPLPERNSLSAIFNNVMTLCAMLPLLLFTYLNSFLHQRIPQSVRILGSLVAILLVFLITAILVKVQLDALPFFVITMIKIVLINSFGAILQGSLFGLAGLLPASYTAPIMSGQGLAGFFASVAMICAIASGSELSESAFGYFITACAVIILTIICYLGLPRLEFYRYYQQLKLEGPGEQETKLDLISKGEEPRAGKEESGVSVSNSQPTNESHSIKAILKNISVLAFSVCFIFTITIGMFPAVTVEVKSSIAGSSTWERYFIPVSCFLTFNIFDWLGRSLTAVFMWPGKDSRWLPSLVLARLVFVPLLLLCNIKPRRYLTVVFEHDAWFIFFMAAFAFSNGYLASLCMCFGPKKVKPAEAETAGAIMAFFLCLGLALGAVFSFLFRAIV

Assay [3] concerns the target T3, Amine oxidase [flavin-containing] A (Homo sapiens, UniProt P21397).
T3 sequence (P21397 whole entry): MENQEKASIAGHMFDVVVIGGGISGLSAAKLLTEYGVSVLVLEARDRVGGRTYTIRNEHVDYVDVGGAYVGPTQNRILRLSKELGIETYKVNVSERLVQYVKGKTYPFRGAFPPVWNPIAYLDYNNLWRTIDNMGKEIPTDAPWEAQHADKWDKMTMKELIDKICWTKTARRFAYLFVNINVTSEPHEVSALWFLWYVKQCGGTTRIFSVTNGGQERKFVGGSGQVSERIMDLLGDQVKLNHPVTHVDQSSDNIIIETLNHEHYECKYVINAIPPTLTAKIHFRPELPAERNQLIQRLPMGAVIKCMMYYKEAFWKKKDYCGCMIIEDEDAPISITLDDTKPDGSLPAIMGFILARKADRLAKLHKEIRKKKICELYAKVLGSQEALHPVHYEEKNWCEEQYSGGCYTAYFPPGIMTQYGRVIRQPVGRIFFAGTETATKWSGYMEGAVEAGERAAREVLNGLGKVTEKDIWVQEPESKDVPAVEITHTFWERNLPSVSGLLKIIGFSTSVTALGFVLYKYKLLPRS
In kind it is functional.

Assay [4] addresses T1, Muscarinic acetylcholine receptor M2. In kind it is functional, cell-based. The source holds these as a separate data set.
The next assay has as its target T4, Estrogen receptor (Homo sapiens, UniProt P03372).
T4 sequence (P03372 whole entry): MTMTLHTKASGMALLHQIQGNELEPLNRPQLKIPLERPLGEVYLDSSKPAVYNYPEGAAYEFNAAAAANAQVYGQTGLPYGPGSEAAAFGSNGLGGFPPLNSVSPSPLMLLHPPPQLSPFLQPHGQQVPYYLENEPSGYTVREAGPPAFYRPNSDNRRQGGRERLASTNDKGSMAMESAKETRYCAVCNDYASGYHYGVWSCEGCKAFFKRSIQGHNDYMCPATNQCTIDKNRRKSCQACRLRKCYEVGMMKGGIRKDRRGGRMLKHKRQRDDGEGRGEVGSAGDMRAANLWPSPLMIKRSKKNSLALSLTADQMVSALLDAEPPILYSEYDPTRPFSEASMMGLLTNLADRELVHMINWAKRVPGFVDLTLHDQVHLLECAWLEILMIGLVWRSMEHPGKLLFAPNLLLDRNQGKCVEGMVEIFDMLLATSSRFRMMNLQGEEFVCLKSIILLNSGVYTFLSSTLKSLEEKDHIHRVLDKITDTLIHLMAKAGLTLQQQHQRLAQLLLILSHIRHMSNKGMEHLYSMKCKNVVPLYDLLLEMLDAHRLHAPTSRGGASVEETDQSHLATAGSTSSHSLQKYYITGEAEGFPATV

The target in assay [5] is cGMP-inhibited 3',5'-cyclic phosphodiesterase 3A (Homo sapiens, UniProt Q14432). In kind it is functional.
The target of assay [6] is Sodium-dependent dopamine transporter (Homo sapiens, UniProt Q01959).
Assay [7] deals with Delta-type opioid receptor (Homo sapiens, UniProt P41143).
Assay [8] concerns the target T5, Alpha-2A adrenergic receptor (Homo sapiens, UniProt P08913).
T5 sequence (P08913 whole entry): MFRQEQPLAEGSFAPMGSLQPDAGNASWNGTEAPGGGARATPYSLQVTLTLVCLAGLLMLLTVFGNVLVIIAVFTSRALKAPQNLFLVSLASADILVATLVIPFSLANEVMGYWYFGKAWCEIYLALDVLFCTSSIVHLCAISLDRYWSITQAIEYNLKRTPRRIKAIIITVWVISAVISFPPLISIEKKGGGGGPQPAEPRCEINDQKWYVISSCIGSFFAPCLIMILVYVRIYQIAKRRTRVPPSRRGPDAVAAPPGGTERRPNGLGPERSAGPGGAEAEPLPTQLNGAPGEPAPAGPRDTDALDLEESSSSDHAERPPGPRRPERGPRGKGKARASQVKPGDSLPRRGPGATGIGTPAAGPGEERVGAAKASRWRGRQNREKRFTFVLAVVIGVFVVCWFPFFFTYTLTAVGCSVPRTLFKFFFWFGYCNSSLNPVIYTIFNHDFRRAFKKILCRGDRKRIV
In kind it is functional, cell-based.

The target of the next assay is Motilin receptor (Homo sapiens, UniProt O43193).
Further: assay procedure not described here.

D(3) dopamine receptor, sequence (P35462 whole entry): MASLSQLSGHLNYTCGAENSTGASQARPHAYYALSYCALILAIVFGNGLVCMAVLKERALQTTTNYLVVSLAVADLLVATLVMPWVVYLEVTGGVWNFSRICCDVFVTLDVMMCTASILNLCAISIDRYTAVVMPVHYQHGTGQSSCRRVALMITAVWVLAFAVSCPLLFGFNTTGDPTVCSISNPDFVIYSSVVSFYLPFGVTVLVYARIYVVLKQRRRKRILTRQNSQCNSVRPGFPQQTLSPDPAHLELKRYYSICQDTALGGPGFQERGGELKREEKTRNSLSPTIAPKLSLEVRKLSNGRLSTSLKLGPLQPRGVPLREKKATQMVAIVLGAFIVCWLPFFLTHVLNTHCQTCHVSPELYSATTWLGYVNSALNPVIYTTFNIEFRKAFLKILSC
Motilin receptor, sequence (O43193 whole entry): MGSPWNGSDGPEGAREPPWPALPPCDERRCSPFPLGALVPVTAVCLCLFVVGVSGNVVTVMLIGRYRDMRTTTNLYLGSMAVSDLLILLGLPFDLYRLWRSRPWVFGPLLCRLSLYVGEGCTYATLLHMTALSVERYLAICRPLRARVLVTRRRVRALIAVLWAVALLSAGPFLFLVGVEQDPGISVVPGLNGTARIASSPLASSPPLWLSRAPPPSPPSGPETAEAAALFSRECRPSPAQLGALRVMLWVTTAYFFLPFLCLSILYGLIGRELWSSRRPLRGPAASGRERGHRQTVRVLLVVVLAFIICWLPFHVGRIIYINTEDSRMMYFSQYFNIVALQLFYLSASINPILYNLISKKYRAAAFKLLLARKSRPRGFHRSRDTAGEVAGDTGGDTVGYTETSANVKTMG
Delta-type opioid receptor, sequence (P41143 whole entry): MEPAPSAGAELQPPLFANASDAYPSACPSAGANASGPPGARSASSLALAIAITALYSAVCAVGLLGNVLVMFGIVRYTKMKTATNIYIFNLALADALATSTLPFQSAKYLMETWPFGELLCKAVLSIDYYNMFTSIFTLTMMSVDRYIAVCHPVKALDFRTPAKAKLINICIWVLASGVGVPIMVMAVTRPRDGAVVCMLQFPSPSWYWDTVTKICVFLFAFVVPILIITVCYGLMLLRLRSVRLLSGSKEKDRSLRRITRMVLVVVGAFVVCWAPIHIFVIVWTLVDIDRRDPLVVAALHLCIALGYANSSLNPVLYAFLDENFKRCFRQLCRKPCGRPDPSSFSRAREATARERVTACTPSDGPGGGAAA
cGMP-inhibited 3',5'-cyclic phosphodiesterase 3A, sequence (Q14432 whole entry): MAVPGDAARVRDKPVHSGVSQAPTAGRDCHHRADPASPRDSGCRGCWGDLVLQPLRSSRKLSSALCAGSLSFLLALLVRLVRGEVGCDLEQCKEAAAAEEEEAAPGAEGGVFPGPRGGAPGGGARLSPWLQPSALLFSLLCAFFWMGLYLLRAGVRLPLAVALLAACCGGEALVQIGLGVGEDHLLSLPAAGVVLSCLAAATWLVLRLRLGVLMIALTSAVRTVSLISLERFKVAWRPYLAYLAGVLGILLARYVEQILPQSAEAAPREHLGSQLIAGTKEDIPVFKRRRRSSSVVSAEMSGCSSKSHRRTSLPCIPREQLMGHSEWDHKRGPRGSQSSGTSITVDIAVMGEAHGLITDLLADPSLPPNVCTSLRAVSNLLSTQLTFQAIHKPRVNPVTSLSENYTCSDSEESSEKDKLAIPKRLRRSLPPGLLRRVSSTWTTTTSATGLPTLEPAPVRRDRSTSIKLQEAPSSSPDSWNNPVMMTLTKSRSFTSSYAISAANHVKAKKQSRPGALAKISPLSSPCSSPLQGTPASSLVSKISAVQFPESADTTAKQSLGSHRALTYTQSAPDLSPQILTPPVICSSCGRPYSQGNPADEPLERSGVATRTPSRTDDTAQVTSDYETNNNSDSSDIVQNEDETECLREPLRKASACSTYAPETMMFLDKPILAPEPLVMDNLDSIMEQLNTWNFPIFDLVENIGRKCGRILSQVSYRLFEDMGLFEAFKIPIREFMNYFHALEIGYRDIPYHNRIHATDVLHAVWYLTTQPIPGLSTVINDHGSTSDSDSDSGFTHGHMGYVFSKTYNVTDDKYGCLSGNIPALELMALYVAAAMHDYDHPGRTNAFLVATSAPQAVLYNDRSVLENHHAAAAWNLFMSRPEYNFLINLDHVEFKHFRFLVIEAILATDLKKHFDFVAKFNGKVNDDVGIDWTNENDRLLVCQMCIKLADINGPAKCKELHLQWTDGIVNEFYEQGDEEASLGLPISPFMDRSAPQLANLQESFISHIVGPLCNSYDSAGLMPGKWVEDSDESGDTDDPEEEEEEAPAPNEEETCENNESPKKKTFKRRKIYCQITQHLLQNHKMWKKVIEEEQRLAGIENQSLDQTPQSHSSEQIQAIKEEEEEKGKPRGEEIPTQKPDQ
Sodium-dependent dopamine transporter, sequence (Q01959 whole entry): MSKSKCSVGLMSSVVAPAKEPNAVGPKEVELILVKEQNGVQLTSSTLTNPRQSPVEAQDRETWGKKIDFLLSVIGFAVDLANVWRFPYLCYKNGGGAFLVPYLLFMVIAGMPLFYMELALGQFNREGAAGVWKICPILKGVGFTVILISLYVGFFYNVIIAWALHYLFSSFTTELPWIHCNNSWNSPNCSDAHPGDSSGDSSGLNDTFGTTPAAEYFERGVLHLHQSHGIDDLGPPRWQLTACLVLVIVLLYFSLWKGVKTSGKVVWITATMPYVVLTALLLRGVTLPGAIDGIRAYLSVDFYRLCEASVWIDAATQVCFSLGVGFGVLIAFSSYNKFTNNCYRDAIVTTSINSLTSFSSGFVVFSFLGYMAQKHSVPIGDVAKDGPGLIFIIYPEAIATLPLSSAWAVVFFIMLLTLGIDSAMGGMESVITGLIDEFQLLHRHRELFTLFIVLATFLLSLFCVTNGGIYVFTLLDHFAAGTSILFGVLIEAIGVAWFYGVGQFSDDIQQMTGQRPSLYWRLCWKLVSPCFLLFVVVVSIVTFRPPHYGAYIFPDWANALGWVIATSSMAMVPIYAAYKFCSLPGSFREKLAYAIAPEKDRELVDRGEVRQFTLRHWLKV

For the compound `CC(C)OC(=O)CCC/C=C\C[C@@H]1[C@@H](CC[C@@H](O)CCc2ccccc2)[C@H](O)C[C@@H]1O` [LATANOPROST], the AC50 (at D(3) dopamine receptor; in assay [1]; in assay [2]; in [3]; in assay [4]; on Estrogen receptor) was above 30 µM each time. The AC50 (in assay [5]; in [6]; in [7]; in assay [8]; on Motilin receptor) was above 30 µM in each case.
For `COC(=O)C1=C(C)NC(C)=C(C(=O)OC(C)(C)CN(C)CCC(c2ccccc2)c2ccccc2)C1c1cccc([N+](=O)[O-])c1` (configuration not stated) [LERCANIDIPINE], the AC50 (on D(3) dopamine receptor; in [1]; in assay [2]; in assay [3]; in assay [4]; at Estrogen receptor) was above 30 µM each time. Further, the AC50 in assay [5] is 25 µM; in assay [6] it was 35.7 µM; in assay [7] it was above 30 µM; in assay [8], above 30 µM; at Motilin receptor, 12.6 µM.
For `CC(C)=CCC/C(C)=C/C=C/C(C)=C/C=C/C(C)=C/C=C/C=C(C)/C=C/C=C(C)/C=C/C=C(\C)CCC=C(C)C` [LYCOPENE], the concentration at half-maximal activity (AC50) at D(3) dopamine receptor was above 30 µM; in assay [1], above 30 µM; in assay [2], above 30 µM; in assay [3] it was above 30 µM; in [4], above 30 µM; on Estrogen receptor, above 10 µM. Besides, the AC50 (in [5]; in assay [6]; in [7]; in assay [8]; at Motilin receptor) was above 30 µM each time.
As to `C[C@H](N)[C@H](O)c1cccc(O)c1` [METARAMINOL], the AC50 was above 30 µM at D(3) dopamine receptor; above 10 µM in assay [1]; above 10 µM in assay [2]; above 10 µM in assay [3]; above 10 µM in [4]; above 10 µM on Estrogen receptor. In addition, the AC50 in assay [5] is above 30 µM; in assay [6], above 10 µM; in [7], above 30 µM; in assay [8] it was above 10 µM; on Motilin receptor, above 10 µM.
In the case of `CCC1(CC)C(=O)NCC(C)C1=O` (configuration not stated) [METHYPRYLON], the AC50 (at D(3) dopamine receptor; in assay [1]; in assay [2]; in assay [3]; in [4]; on Estrogen receptor) was above 30 µM throughout. For the same compound, the AC50 (in [5]; in assay [6]; in assay [7]; in assay [8]; at Motilin receptor) was above 30 µM in each case.
As to `O=C(O)[C@H](CC(=O)N1C[C@H]2CCCC[C@H]2C1)Cc1ccccc1` [MITIGLINIDE], the concentration at half-maximal activity (AC50) at D(3) dopamine receptor is above 30 µM; in [1], above 10 µM; in assay [2] it was above 10 µM; in assay [3], above 10 µM; in assay [4], above 10 µM; on Estrogen receptor, above 10 µM. The concentration at half-maximal activity (AC50) is above 30 µM in assay [5]; above 10 µM in [6]; above 30 µM in assay [7]; above 10 µM in assay [8]; above 10 µM at Motilin receptor.
Take `OC(CNCC(O)C1CCc2cc(F)ccc2O1)C1CCc2cc(F)ccc2O1` (configuration not stated) [NEBIVOLOL]: the AC50 was 2 µM at D(3) dopamine receptor; above 10 µM in assay [1]; above 30 µM in assay [2]; above 30 µM in [3]; above 30 µM in assay [4]; above 30 µM on Estrogen receptor. Further, the AC50 in [5] is above 30 µM; in [6] it was 3.2 µM; in assay [7], above 30 µM; in assay [8] it was above 30 µM; at Motilin receptor it was 21 µM.

As usually defined, the AC50 is the midpoint of the concentration-response curve, whichever way the signal moves. The low end stands for greater potency, the high end for weaker potency.

For the origin of these results see ChEMBL document CHEMBL5291721, “A preclinical secondary pharmacology resource illuminates target-adverse drug reaction associations of marketed drugs” (Nat Commun, 2023).
